Test results from PMC6297782, “DNA-Mediated Interferon Signature Induction by SLE Serum Occurs in Monocytes Through Two Pathways: A Mechanism to Inhibit Both Pathways” (Frontiers in Immunology, 2018).
One block for each molecule: values may come before it.

Tests used:
[1] = tested on: HMGB1-induced ISGs, primary human monocytes; experiment: ISG induction by HMGB1 in monocytes (qPCR); type: cell-based; settings: HMGB1 with DWEYS or control peptide, 4 h, three independent experiments
Description: Human cells were obtained with approval of the Institutional Review Board of the Feinstein Institute for Medical Research. PBMCs were isolated from blood of healthy donors (New York Blood Center) by density centrifugation. Monocytes were enriched by negative selection using a human monocyte enrichment kit ([…] Technologies). Purity of monocytes (CD11b^+, CD14^+, LAIR-1^+) was determined to be >90% by flow cytometry (FACS Calibur, BD Biosciences, San Jose, CA, USA). Purified monocytes (2 × 10^6 cells/ml) were cultured in U-bottom 96-well plates in X-VIVO 15 serum free medium (Lonza) with the indicated reagents and harvested at 4–6 h later, or at the indicated times. […] Murine monocyte purity was determined to be >90%.
Total RNA was extracted from cells (1–2 × 10^6 cells per sample) with an RNeasy kit (Qiagen, Germantown, MD, USA) and cDNA was generated using an iScript cDNA synthesis kit (Bio-Rad, Hercules, CA, USA). qRT-PCR was performed on a Light Cycler 480 II (Roche, Indianapolis, IN, USA). […] The relative induction was calculated by 2^−ΔΔCt.
(B) Inhibition curve used for IC50 evaluation as noted in the methods section. […] (D) Indicates adjusted fluorescence intensity for three experiments. (E) Primary human monocytes were incubated with HMGB1 and with or without DWEYS or control peptide for 4 h. lSG expression was evaluated using qPCR.

[2] = tested on: human monocytes (HMGB1 internalization); experiment: HMGB1 internalization by human monocytes, microscopy; type: cell-based; settings: AF-594-labeled HMGB1, human monocytes
Description: (§1) For HMGB1 or CpG internalization assays, isolated human monocytes were cultured in 8 well-chamber-slides (Nunc, LabTek, Thermo-Fisher) in X-VIVO 15 culture medium. Cells were allowed to adhere for 2 h and then washed with PBS and incubated with AlexaFluor-594 HMGB1 or FITC-CpG with or without DWEYS for 15 min. Nuclei were counterstained using DAPI. Cells were washed three times with cold PBS and then fixed with 4% PFA and mounted using Dako mounting solution (Agilnet Technologies, Santa Clara, CA, USA).
(B) Inhibition curve used for IC50 evaluation as noted in the methods section. (C,D) Human monocytes were incubated with labeled HMGB1 (red) alone (C, top panel) or HMGB1 and DWEYS (C, middle panel) or HMGB1 and control peptide (C, bottom panel) for 20 min. Cells were counterstained with DAPI and imaged using a confocal laser scanning microscope. (D) Indicates adjusted fluorescence intensity for three experiments. (E) Primary human monocytes were incubated with HMGB1 and with or without DWEYS or control peptide for 4 h. lSG expression was evaluated using qPCR.

[3] = tested on: CpG-induced ISGs, primary human monocytes; experiment: ISG induction by CpG in monocytes (qPCR); type: cell-based; settings: CpG with or without peptide, 20 min per legend, three independent experiments
[4] = tested on: primary human monocytes / SLE serum-induced ISGs; experiment: ISG induction by SLE serum in healthy donor monocytes (qPCR); type: cell-based; settings: 4 h, two DWEYS concentrations, control peptide at the higher dose, mean ± SD of three independent experiments
[5] = tested on: human monocytes (CpG internalization); experiment: FITC-CpG internalization by human monocytes, microscopy; type: cell-based; settings: 37°C, 15 min (legend 20 min)
Description: as §1
Non IC-bound DNA can also be internalized by binding to HMGB1, with the HMGB1-DNA complex binding to RAGE ([1]). […] We incubated monocytes from healthy donors with FITC labeled CpG. […] CpG is internalized chaperoned by HMGB1 binding through RAGE.
Figure 4 DWEYS binds HMGB1 and inhibits its binding to RAGE. (A) Monocytes were incubated with labeled CpG (red) and DWEYS or control peptide for 20 min. Cells were counterstained with DAPI prior to imaging. (B) Depicts adjusted fluorescence intensity for three experiments run. (C) Monocytes from C57BL6 wild type (WT) or RAGE^−/− mice were incubated with labeled CpG for 20 min and counterstained with DAPI prior to imaging. (D) Primary human monocytes were incubated with CpG and with or without DWEYS or a control peptide for 20 min. ISG expression was analyzed by qPCR. […]

CpG:TLR9 binding = experiment: Inhibition of CpG binding to TLR9, AlphaScreen; settings: constant CpG concentration
Description: Binding of TLR9 to biotinylated CpG or the DWEYS peptide was assayed in a buffer consisting of 50 mM Tris-HCl pH 7.4, 100 mM NaCl, 1% ultrapure BSA, 0.01% Tween 20 using an amplified luminescent proximity assay with streptavidin-conjugated donor beads and nickel chelate acceptor beads (AlphaScreen; Perkin Elmer, Boston, MA, USA), as described before ([1]).
Figure 2 DWEYS inhibits the transfer of the interferon signature by SLE serum but is not a TLR9 antagonist. (A) Primary human monocytes were incubated with SLE serum with or without DWEYS or with control peptide for 4 h. lSG expression was evaluated by qPCR. […] (B) Assessment of DWEYS and CpG oligonucleotides binding to TLR9. Labeled TLR9 was incubated with varying concentrations of CpG or DWEYS for 30 min in room temperature. Binding was assessed using an AlphaScreen assay as described in the methods section. (C,D) Inhibition assay. Labeled TLR9 and constant, binding concentration of CpG were incubated with different concentrations of DWEYS or a control peptide at neutral (pH 7.4, C) or acidic (pH 6.25, D) condition. Binding was assessed using an AlphaScreen assay as noted in the methods section. Results are representative of three independent experiments. ^***p < 0.001, ns, not significant.

HMGB1 = HMGB1 binding, surface plasmon resonance; settings: SPR Biacore T200, HMGB1 immobilized on CM5 chip, 25°C
Description: A Biacore T200 apparatus (GE Healthcare Bio-Sciences, Pittsburgh, PA, USA) was used for real-time binding interaction studies. For HMGB1 and DWEYS peptide binding analyses, HMGB1 protein was immobilized onto a CM5 series chip (GE Healthcare). The HMGB1 protein was diluted to a concentration of 20 μg/mL in 10 mM sodium acetate buffer (pH = 4.5). A 1:1 mixture of N-hydroxysuccinimide and N-ethyl-N-(dimethyaminopropyl) carbodiimide was used to activate two flow-cells of the CM5 chip. […] The sample flow-cell was injected with the diluted HMGB1 at a flow rate of 10 μL/min. The HMGB1 injection was stopped when the surface plasmon resonance reached ~600 RU. For HMGB1 and DWEYS peptide kinetics assay, DWEYS peptide were sequentially injected at a flow rate of 20 μL/min for 120 s at 25°C, the dissociation time was set for 2 min. The concentrations were 16, 31.25, 62.5, 125, 250 μM. The equilibrium dissociation constant (KD) was obtained to evaluate the binding affinity by using the BIAEvaluation 2.0 software (GE Healthcare) assuming a 1:1 binding ratio. At least 3 independent experiments were performed.

primary human monocytes = experiment: DWEYS internalization into monocytes (ImageStream); type: cell-based; settings: 20 min
Description: Primary human monocytes were incubated for 20 min with biotin-tagged DWEYS peptide alone or with serum from SLE patients or healthy controls. Following incubation, cells were thoroughly washed and stained with anti-CD14 antibody (R&D Technologies, North Kingston, RI, USA) for 40 min at 4°C. Cells were then washed, fixed using 4% PFA and permeabilized using 1% Triton-X100, followed by incubation with labeled streptavidin for 40 min. Cell nuclei were counterstained with DAPI and cells were imaged using an ImageStream device (Amnis, Burlington, MA, USA).
Figure 3 DWEYS displaces DNA from immune complexes and inhibits DNA internalization into monocytes. (A) Primary human monocytes were incubated with labeled heat aggregated human lgG (hlgG, red) and either DWEYS or a blocking anti-FcRIIa antibody for 20 min. Cells were counterstained with DAPI and imaged using a laser scanning confocal microscope. (B) The graphs indicates adjusted fluorescence intensity for three experiments. (C) SLE serum was incubated with Syto 60 labeled dsDNA (5 μM), followed by DWEYS or control peptide (100 μM) for 30 min each. lgG was then isolated on protein G beads and Syto60 levels from protein G beads were quantified using LICOR scanner. OD was normalized to a standard labeled and filtered DNA. […] (D,E) Primary human monocytes were incubated with biotinylated DWEYS alone or biotinylated DWEYS and SLE serum from patients with or without anti ds DNA antibodies for 20 min. Cells were then stained for CD 14 as a membrane marker and intracellular DWEYS was tagged using fluorochrome labeled streptavidin. Intracellular DWEYS was quantified using lmageStream instrument: DWEYS fluorescence levels by flow cytometry (D) and representative ImageStream cell images (E). One representative experiment of three with similar results is shown. ^*p < 0.05; ns, not significant.

[6] = molecular target: T1, Recombinant HMGB1 (Calmodulin Binding Protein Epitope, Cbp tagged) (UniProt P09429 1-215); experiment: SPR; Biacore T200; HMGB1 amine-coupled to a CM5 chip (~600 RU); peptide injected at 16-250 μM, 20 μL/min, 120 s, 25°C; 1:1 binding assumed; apparent KD; settings: both partners purified
T1 construct: high-mobility group box-1 protein (HMGB1), recombinant; The reagents also list 'reduced HMGB1'; also called high-mobility group box-1
T1 sequence (looked up): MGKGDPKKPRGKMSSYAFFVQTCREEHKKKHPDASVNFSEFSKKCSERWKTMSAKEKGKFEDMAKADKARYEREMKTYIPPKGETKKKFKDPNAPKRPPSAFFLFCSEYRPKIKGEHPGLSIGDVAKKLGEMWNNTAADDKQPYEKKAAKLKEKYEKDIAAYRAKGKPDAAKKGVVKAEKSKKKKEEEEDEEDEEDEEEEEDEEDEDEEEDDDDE

[7] = molecular target: T1, Recombinant HMGB1 (Calmodulin Binding …); experiment: SPR; inhibition assay, Biacore T200; sRAGE amine-coupled to a CM5 chip (~500 RU); HMGB1 (0.5 μM) with or without DWEYS 50 to 1.6 μM injected at 30 μL/min for 60 s, 25°C; PBS + 0.05 Tween 20; settings: both partners purified

Molecule: biotinylated DWEYS [labeled DWEYS]
internalization of DWEYS, no serum (primary human monocytes; biotinylated DWEYS alone): only minimal internalization
internalization of DWEYS, SLE serum with high anti-DNA titer (primary human monocytes; biotinylated DWEYS with SLE serum with high anti-DNA antibody titer): significant intracellular internalization of DWEYS was seen
internalization of DWEYS, SLE serum lacking anti-DNA antibodies (primary human monocytes; biotinylated DWEYS with SLE serum with low titers of anti-DNA antibodies): did not mediate DWEYS internalization
internalization of DWEYS, healthy donor serum (primary human monocytes; biotinylated DWEYS with serum from healthy donors): only minimal internalization

B2: high-mobility group box-1 (protein)
chain: T1 sequence (looked up)
modifications: left off: Calmodulin Binding Protein Epitope (Cbp), end not stated, state not stated
HMGB1 internalization alone [2]: detected in monocytes after 15–30 min in incubation

Now from value to molecule, other results behind:

binding to immobilized HMGB1 (HMGB1): did not bind
Molecule: TATAT [control peptide]
ISG level on HMGB1 incubation [1]: increased level of ISGs, in the presence of control peptide
HMGB1 internalization (effect of peptide) ([2]; 20 min, confocal microscopy): no inhibition of HMGB1 internalization
CpG induction of ISGs (effect of peptide) [3]: failed to inhibit ISG induction
ISG induction by SLE serum (effect of peptide) [4]: showed an induction of all three ISGs studied
CpG internalization (effect of peptide) [5]: no effect
inhibition of CpG binding to TLR9, acidic pH (CpG:TLR9 binding; pH 6.25 (simulating activated endosome)): neither DWEYS, nor a control peptide, used at various concentrations, inhibited the binding
inhibition of CpG binding to TLR9, neutral pH (CpG:TLR9 binding; pH 7.4): neither DWEYS, nor a control peptide, used at various concentrations, inhibited the binding

Kd [6]: 185 µM
IC50 [7]: 34.7 µM
B1: DWEYS peptide (peptide)
peptide: DWEYS
notes: the biotinylated form may have been used there; also called pentapeptide DWEYS; DNA mimetope; source: synthetic peptide (GenScript)
